Source: ChEMBL document CHEMBL6092218 (J Med Chem, 2024)
Calls of active or inactive are those of the source. The calls are words filed in the database; no cut-off is given here.

Columns and labels:
[1] = Apparent permeability of compound in dog RRCK cells measured after 1.5 hrs by LC-MS/MS analysis; details: MDCK
[2] = Metabolic stability in human liver microsomes assessed as apparent intrinsic clearance at 1 uM measured upto 60 mins in presence of NADPH by LC-MS/MS analysis; type: ADME, Microsome; details: read-out: CLH
Cytochrome P450 3A4 = Cytochrome P450 3A4 (Homo sapiens, UniProt P08684); assay: Inhibition of CYP3A4 in human liver microsomes using midazolam as substrate incubated for 4 mins by LC-MS/SM analysis
Chain of Cytochrome P450 3A4 (P08684 whole entry): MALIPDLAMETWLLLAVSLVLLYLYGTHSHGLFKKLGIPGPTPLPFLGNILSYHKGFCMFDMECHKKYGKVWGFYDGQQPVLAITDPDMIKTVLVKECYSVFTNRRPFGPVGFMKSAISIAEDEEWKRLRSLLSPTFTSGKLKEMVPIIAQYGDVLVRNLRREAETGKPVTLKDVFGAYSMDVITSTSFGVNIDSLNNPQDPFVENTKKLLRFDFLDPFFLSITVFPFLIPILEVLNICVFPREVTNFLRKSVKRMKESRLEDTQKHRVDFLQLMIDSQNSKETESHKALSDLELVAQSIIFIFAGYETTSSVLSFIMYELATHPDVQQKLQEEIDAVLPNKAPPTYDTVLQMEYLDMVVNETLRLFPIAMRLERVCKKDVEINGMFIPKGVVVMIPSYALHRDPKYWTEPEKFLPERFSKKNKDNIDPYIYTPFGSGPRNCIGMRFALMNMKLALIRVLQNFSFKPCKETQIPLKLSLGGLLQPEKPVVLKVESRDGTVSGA

MIA PaCa-2 [3] = assay: Antiproliferative activity against human MIA PaCa-2 cells incubated for 6 days by CyQUANT cell proliferation assay; type: functional, cell-based; details: MIA PaCa-2, 144 h
[4] = Bioavailability in mouse at 30 mg/kg, po measured upto 24 hrs by LC-MS/MS analysis; type: ADME, organism-based; details: in vivo
[5] = Volume of distribution at steady state in mouse at 30 mg/kg, po measured upto 24 hrs by LC-MS/MS analysis; type: ADME, organism-based; details: in vivo
[6] = Clearance in mouse blood at 30 mg/kg, po measured upto 24 hrs by LC-MS/MS analysis; type: ADME, organism-based; details: whole blood
[7] = Half-life in mouse at 30 mg/kg, po measured upto 24 hrs by LC-MS/MS analysis; type: ADME, organism-based; details: in vivo
MIA PaCa-2 [8] = assay: Antitumor activity against human MIA PaCa-2 cells xenografted in NSG mouse assessed as tumor growth inhibition at 15 mg/kg, po qd measured after 24 days by caliper method; type: functional; details: MIA PaCa-2, 576 h, time 24 day, read-out: TGI
MIA PaCa-2 [9] = assay: Antitumor activity against human MIA PaCa-2 cells xenografted in NSG mouse assessed as tumor growth inhibition at 30 mg/kg, po qd measured after 24 days by caliper method; type: functional; details: MIA PaCa-2, 576 h, time 24 day, read-out: TGI
MIA PaCa-2 [10] = assay: Antitumor activity against human MIA PaCa-2 cells xenografted in NSG mouse assessed as tumor growth inhibition at 10 mg/kg, po bid measured after 24 days by caliper method; type: functional; details: MIA PaCa-2, 576 h, time 24 day, read-out: TGI
MIA PaCa-2 [11] = assay: Antitumor activity against human MIA PaCa-2 cells xenografted in NSG mouse assessed as tumor growth inhibition at 15 mg/kg, po bid measured after 24 days by caliper method; type: functional; details: MIA PaCa-2, 576 h, time 24 day, read-out: TGI
MIA PaCa-2 [12] = assay: Antitumor activity against human MIA PaCa-2 cells xenografted in po dosed NSG mouse assessed as reduction in tumor volume measured after 24 days by caliper method; type: functional, organism-based; details: time 24.0 day
MIA PaCa-2 [13] = assay: Antitumor activity against human MIA PaCa-2 cells xenografted in NSG mouse assessed as tumor stasis at 15 mg/kg, po BID measured after 24 days; type: functional, organism-based; details: time 24.0 day
MIA PaCa-2 [14] = assay: Antitumor activity against human MIA PaCa-2 cells xenografted in NSG mouse assessed as tumor stasis at 30 mg/kg, po qd measured after 24 days; type: functional, organism-based; details: time 24.0 day
MIA PaCa-2 [15] = assay: Antitumor activity against human MIA PaCa-2 cells xenografted in NSG mouse assessed as time duration of coverage of MIA PaCa-2 IC50 in plasma at 15 mg/kg, po qd; type: functional
MIA PaCa-2 [16] = assay: Antitumor activity against human MIA PaCa-2 cells xenografted in NSG mouse assessed as time duration of coverage of MIA PaCa-2 IC50 in plasma at 30 mg/kg, po qd; type: functional
MIA PaCa-2 [17] = assay: Antitumor activity against human MIA PaCa-2 cells xenografted in NSG mouse assessed as time duration of coverage of MIA PaCa-2 IC50 in plasma at 10 mg/kg, po bid; type: functional
MIA PaCa-2 [18] = assay: Antitumor activity against human MIA PaCa-2 cells xenografted in NSG mouse assessed as time duration of coverage of MIA PaCa-2 IC50 in plasma at 15 mg/kg, po bid; type: functional
MIA PaCa-2 [19] = assay: Antitumor activity against human MIA PaCa-2 cells xenografted in NSG mouse assessed as time duration of coverage of MIA PaCa-2 IC90 in plasma at 15 mg/kg, po qd; type: functional
MIA PaCa-2 [20] = assay: Antitumor activity against human MIA PaCa-2 cells xenografted in NSG mouse assessed as time duration of coverage of MIA PaCa-2 IC90 in plasma at 30 mg/kg, po qd; type: functional
MIA PaCa-2 [21] = assay: Antitumor activity against human MIA PaCa-2 cells xenografted in NSG mouse assessed as time duration of coverage of MIA PaCa-2 IC90 in plasma at 10 mg/kg, po bid; type: functional
MIA PaCa-2 [22] = assay: Antitumor activity against human MIA PaCa-2 cells xenografted in NSG mouse assessed as time duration of coverage of MIA PaCa-2 IC90 in plasma at 15 mg/kg, po bid; type: functional
[23] = Toxicity in NSG mouse xenografted in with human MIA PaCa-2 cells assessed as body weight loss at 15 to 30 mg/kg, po qd […]; type: organism-based; details: in vivo, dose 15-30 mg/kg
[24] = Toxicity in NSG mouse xenografted in with human MIA PaCa-2 cells assessed as body weight loss at 10 to 15 mg/kg, po bid […]; type: organism-based; details: in vivo, dose 10-15 mg/kg

Cc1cn(C)nc1Nc1cc2cc(C3CCc4nccn43)nc(N)c2cn1 (centres undefined)
Papp at 1.5 h [1]: 44.4 ×10⁻⁶ cm/s | microsomal CLint at 1 µM [2]: 28.6 µL/min/mg | IC50 (Cytochrome P450 3A4): > 22400 nM

CCC(N)(CC)c1ccnc(Nc2cc3cc(N4CCOC4=O)nc(N)c3cn2)c1
Papp at 1.5 h [1]: 12.3 ×10⁻⁶ cm/s | microsomal CLint at 1 µM [2]: 19.4 µL/min/mg | IC50 (MIA PaCa-2 [3]): 12.8 nM

CCn1nc(Nc2cc3cc(-c4cnnn4C)nc(N)c3cn2)c2c1[C@@H]1CC[C@H]2C(=O)N1C1CCC1
Papp at 1.5 h [1]: 5.2 ×10⁻⁶ cm/s | microsomal CLint at 1 µM [2]: 76.8 µL/min/mg

CC[C@@](C)(N)c1ccnc(Nc2cc3cc(-c4cnnn4C)nc(N)c3cn2)c1
Papp at 1.5 h [1]: 6.4 ×10⁻⁶ cm/s | microsomal CLint at 1 µM [2]: < 7 µL/min/mg | IC50 (MIA PaCa-2 [3]): 6.5 nM | bioavailability [4]: 3% | Vdss [5]: 2.8 L/kg | CL/F [6]: 49.4 mL/min/kg | half-life [7]: 3.8 h

Cc1cn(C)nc1Nc1cc2cc(-c3cncn3C)nc(N)c2cn1
microsomal CLint at 1 µM [2]: 8.2 µL/min/mg

Cc1cn(C)nc1Nc1cc2cc(-c3sncc3C)nc(N)c2cn1
microsomal CLint at 1 µM [2]: 189 µL/min/mg

Cn1nncc1-c1cc2cc(Nc3nn(C)c4c3[C@@H]3CC[C@H]4N(C4CCC4)C3)ncc2c(N)n1
Papp at 1.5 h [1]: 5.2 ×10⁻⁶ cm/s | microsomal CLint at 1 µM [2]: 201 µL/min/mg

CCC(N)(CC)c1ccnc(Nc2cc3cc(-c4cnnn4C)nc(N)c3cn2)c1
Papp at 1.5 h [1]: 11.1 ×10⁻⁶ cm/s | microsomal CLint at 1 µM [2]: 41.1 µL/min/mg | IC50 (MIA PaCa-2 [3]): 3 nM | bioavailability [4]: 96% | Vdss [5]: 4.9 L/kg | CL/F [6]: 109 mL/min/kg | half-life [7]: 12 h | inhibition in vivo at 15 mg/kg (MIA PaCa-2 [8]): 35% | inhibition in vivo at 30 mg/kg (MIA PaCa-2 [9]): 106% | inhibition in vivo at 10 mg/kg (MIA PaCa-2 [10]): 58% | inhibition in vivo at 15 mg/kg (MIA PaCa-2 [11]): 103% | Activity (MIA PaCa-2 [12]): Dose-dependent-effect | Activity (MIA PaCa-2 [13]): Active | Activity (MIA PaCa-2 [14]): Active | T>IC50 (MIA PaCa-2 [15]): 15 h | T>IC50 (MIA PaCa-2 [16]): 24 h | T>IC50 (MIA PaCa-2 [17]): 21 h | T>IC50 (MIA PaCa-2 [18]): 24 h | T>IC90 (MIA PaCa-2 [19]): 9 h | T>IC90 (MIA PaCa-2 [20]): 16 h | T>IC90 (MIA PaCa-2 [21]): 16 h | T>IC90 (MIA PaCa-2 [22]): 19 h | Activity [23]: Non-toxic | Activity [24]: Non-toxic

Cn1nncc1-c1cc2cc(Nc3cc(C(C)(C)N)ccn3)ncc2c(N)n1
Papp at 1.5 h [1]: 1.7 ×10⁻⁶ cm/s | microsomal CLint at 1 µM [2]: < 7 µL/min/mg

Cn1nncc1-c1cc2cc(Nc3cc(C(C)(C)O)ccn3)ncc2c(N)n1
Papp at 1.5 h [1]: 13.3 ×10⁻⁶ cm/s | microsomal CLint at 1 µM [2]: < 7 µL/min/mg

Cc1cn(C)nc1Nc1cc2cc(-c3cn[nH]c3C)nc(N)c2cn1
Papp at 1.5 h [1]: 10.8 ×10⁻⁶ cm/s | microsomal CLint at 1 µM [2]: 31.8 µL/min/mg | IC50 (Cytochrome P450 3A4): 14500 nM

CC[C@](C)(N)c1ccnc(Nc2cc3cc(-c4cnnn4C)nc(N)c3cn2)c1
Papp at 1.5 h [1]: 5.6 ×10⁻⁶ cm/s | microsomal CLint at 1 µM [2]: < 7 µL/min/mg | IC50 (MIA PaCa-2 [3]): 14.5 nM | bioavailability [4]: 7% | Vdss [5]: 3.2 L/kg | CL/F [6]: 124 mL/min/kg | half-life [7]: 0.6 h

Cc1cn(C)nc1Nc1cc2cc(-c3cnccn3)nc(N)c2cn1
microsomal CLint at 1 µM [2]: 21.2 µL/min/mg

Cc1cn(C)nc1Nc1cc2cc(-c3cnnn3C)nc(N)c2cn1
microsomal CLint at 1 µM [2]: 15.3 µL/min/mg
